Source: patent publication US20230136824A1, “N-N-[…] (DMT) AND DMT ANALOG COMPOSITIONS, METHODS OF MAKING, AND METHODS OF USE THEREOF” (ATAI Life Sciences AG, priority 2021, published 2023)
Converted amounts (≈) assume the structure as drawn.

Key:
[1] = DMT solubility in various solvents (super saturated mixture, HPLC); assay type: physicochemical
Excerpt: Solubility studies of DMT have been carried out in various solvents by preparing super saturated mixture and analyzed using HPLC.
This warrants a strong need for improvement solubility of DMT API in the film formulation for better bioavailability.

[2] = Excipient compatibility of DMT binary mixtures at 50° C./75% RH (HPLC impurity levels); assay type: physicochemical
Protocol: Further, several excipients for formulating transmucosal films with desired properties have been analyzed for compatibility with DMT at 50° C./75% RH utilizing HPLC method to detect impurity levels.

[3] = Forced degradation study of DMT under stress conditions (HPLC); assay type: physicochemical; conditions: for % Assay: exposure overnight
Protocol: A forced degradation study of DMT was performed under different stress conditions and samples are analyzed using HPLC.
It is important to incorporate antioxidant(s) in the formulation to prevent oxidation of DMT during the shelf life and to form stable films.

[4] = Ex-vivo permeation through porcine buccal mucosa (Franz diffusion cell); assay type: in vitro ADME; conditions: 180 minutes, phosphate buffered solution 0.01M pH=7
Protocol: Further, permeability of DMT through prepared films were evaluated using ex-vivo permeation study i.e., using porcine buccal mucosa as presented below. Ex-vivo permeation is well studied using Franz diffusion cell or Using chambers utilizing animal mucosa (e.g., Pig or sheep buccal mucosa) or by using commercially available synthetic membranes (e.g., Permeapad®). The Franz diffusion cell consists of two compartments; one is the donor compartment, the other is the receptor compartment of 18 mL capacity and having 0.785 cm^2 effective diffusion area. The temperature is maintained at 37° C. by water jacket. […]
Further, all prepared films are evaluated for the permeability through pig buccal mucosa and compared against the permeability of API dispersion in PBS pH 7.0 as presented in FIG. 6. In one aspect, the present invention involves a DMT polymeric film that releases about 5% or less DMT in 60 minutes, about 15% DMT or less in 180 minutes when measured through pig mucosa in phosphate buffered solution 0.01M pH=7, as shown in FIG. 6.
Further, permeability of DMT through prepared films were evaluated using ex-vivo permeation study i.e., porcine buccal mucosa or Permeapad® as presented below.

[5] = pH of the donor chamber media in permeation study; assay type: physicochemical; conditions: PBS pH 7.0
[6] = Solubility of buccal film and neat API in Phosphate buffer saline pH 6.8; assay type: physicochemical
[7] = Physicochemical constants of DMT (log P, pKa, glass transition temperature); conditions: amorphous N,N-DMT
Excerpt: DMT free base is a lipophilic molecule (log P−2.573) with a small backbone (Mol wt. 188.27 g/mol).
The pH of the film plays a very important role in balancing its ionized vs unionized form at the site. In the present invention microenvironmental pH is maintained to achieve balance between ionized and unionized form and thus the permeation across the mucosa.

CN(C)CCc1c[nH]c2ccccc12 [DMT, N, N-Dimethyltryptamine]
solubility ([1]; Saliva Buffer (pH 6.8)): 2.3 mg/mL (≈ 12.2 mM)
solubility ([1]; acetone): > 126 mg/mL
solubility ([1]; acetonitrile): > 94 mg/mL
solubility ([1]; ethanol): > 98 mg/mL
solubility ([1]; isopropyl alcohol water): > 98 mg/mL
solubility ([1]; methanol): > 98 mg/mL
solubility ([1]; methanol:water (50:50)): 26 mg/mL (≈ 138 mM)
solubility ([1]; methanol:water (70:30)): > 50 mg/mL
solubility ([1]; methyl isobutyl ketone): > 90 mg/mL
solubility ([1]; p-dioxane): > 104 mg/mL
solubility ([1]; tetrahydrofuran): > 106 mg/mL
solubility ([1]; water): < 1 mg/mL
No. of Impurities [2]: 6
Total Impurities % [2]: 2.17%
Oxidation upon force degradation study [3]: highly prone to oxidation
% Assay ([3]; 0.1N HCl): 99.7%
% Assay ([3]; 0.1N NaOH): 99.4%
% Assay ([3]; 3% peroxide): 26.6%
% Assay ([3]; 70° C.): 98.5%
DMT released through pig mucosa [4]: about 33%
pH of the donor chamber media [5]: 9.5
solubility [6]: 2300 µg/mL (≈ 12.2 mM)
Glass transition temperature [7]: −18 °C
